Assay results published in US7972610B2, “Antimicrobial compounds” (University of Strathclyde, priority 2005, dated 2011).

Test system: A. castellanii
Assay: alamarBlue assay of susceptibility of A. castellanii to glyphosate
Assay type: cell-based
Conditions: Acanthamoeba castellanii; A. castellanii (Neff strain) trophozoites, 96 hr incubation, glyphosate 9 mM to 0.27 μM, FIG. 1; read-out: IC50 (inhibition of A. castellanii, percent alamarBlue reduction relative to untreated control cultures)
Experimental: Acanthamoeba polyphaga (Strain No. 1501/18) were obtained from CCAP (Cumbria, UK). Acanthamoeba castellanii (Neff strain) was kindly obtained from Keith Vickerman (Glasgow, UK). A. castellanii and A. polyphaga trophozoites were grown in (a) Rich media containing […] (Fluka, UK) and 0.9% maltose (Sigma, UK) and supplemented with 1% Penicillin, Streptomycin and Amphotericin B (All Sigma, UK) or (b) modified 11 containing 20% Rich media. Acanthamoeba spp. were incubated at room temperature in 75 cm^2 tissue culture flasks until 90-95% confluence, then harvested or sub-cultured using Accutase (Sigma, UK).
The susceptibility of the A. castellanii to glyphosate as assessed by the almarBlue assay. The susceptibility of A. castellanii to glyphosate was determined by a modification of the method described by McBride et al., (2005). A. castellanii cells were grown in 75 cm^2 flasks until 90-95% confluence and harvested using Accutase (Sigma, UK). […] AlamarBlue reduction was assessed as previously described. The percent inhibition of almarBlue reduction was calculated using the formula: (εox)λAλ1−(εox)λ1Aλ. of treated Acanthamoeba/(εox)λA°λ1−(εox)λ1A°λ of untreated Acanthamoeba×100
[where: °λ1=absorbance of untreated control with alamarBlue at 570 nm); °λ2=absorbance of untreated control with alamarBlue at 600 nm)]. […]

Q: Which IC50 does the source give for O=C(O)CNCP(=O)(O)O [Glyphosate, N-(phosphonomethyl)glycine] here?
A: Its IC50 is 2.19 to 4.39 µM.
